Measured values reported in patent US6166290A, “Glutathione-S-conjugate transport in plants” (The Trustees of the University of Pennsylvania, priority 1997, dated 2000).
Where two headings read alike, the source gives them in different places.

How the values were obtained:
[1] = test system: vacuolar GS-X pump (vacuolar membrane vesicles, V. radiata hypocotyls); details: cited from earlier work
[2] = test system: vacuolar GS-X pump (vacuolar membrane vesicles, V. radiata hypocotyls); experiment: GS-conjugate uptake by vacuolar membrane vesicles from etiolated hypocotyls of V. radiata; format: biochemical, Vigna radiata
[3] = test system: vacuolar membrane vesicles purified from Beta vulgaris storage root; details: cited from earlier work

N[C@@H](CCC(=O)N[C@@H](CSc1ccc([N+](=O)[O-])cc1[N+](=O)[O-])C(=O)NCC(=O)O)C(=O)O [DNP-GS, S-(2,4-dinitrophenyl)glutathione]
rate of MgATP-dependent, uncoupler-insensitive DNP-GS uptake ([1]; Vigna radiata hypocotyl): 5.8 nmol/mg/20 minutes
Km estimated previously in this system [1]: 80 µM
Vmax of GS-X pump ([1]; comparison value for DNP-GS): 12 nmol/mg/20 minutes
IC50 ([2]; V. radiata, read-out: I50 for uptake of C3G-GS): 104 µM
IC50 ([2]; read-out: I50 for uptake of IAA-GS): 124 µM
inhibition of MgATP-dependent [3H]medicarpin-GS uptake ([2]; vanadate 10 μM, DNP-GS 100 μM, gramicidin D): more than 85%
rate of MgATP-dependent, uncoupler-insensitive DNP-GS uptake [3]: 18.2 nmol/mg/20 minutes
